Assay results published in patent US20240317816A1, “PEPTIDES FOR IMMUNOTHERAPY” (Genevive, Inc., priority 2021, published 2024).

Tests used:
Chemokine receptors = experiment: LRC-TriCEPS LC-MS/MS identification of binding partners; conditions: living cells, LRC-TriCEPS crosslinker
Protocol: SG-3-00802 binding partners were identified using the mass spectrometry-based proteomics (LC MS/MS)-based LRC-TriCEPS™ technology from DualSystems. To enrich for binding partners the ligand was coupled with the LRC-TriCEPS™ crosslinker and incubated with living cells that expressed target receptors. The enriched proteins were purified and processed for analysis by LC-MS/MS. A parallel experiment using transferrin as control ligand enabled the relative quantification of the enriched proteins. Putative binding partners of SG-3-00802 enriched over transferrin ligand are depicted in a volcano plot (FIG. 3).

CCR7 = target: T1, CCR7 (Homo sapiens, UniProt P32248); experiment: SelectScreen agonist/antagonist assay, chemokine receptor expressing U2OS cells; assay type: cell-based
T1 construct: expressed in transfected cells
T1 sequence (P32248 25-378): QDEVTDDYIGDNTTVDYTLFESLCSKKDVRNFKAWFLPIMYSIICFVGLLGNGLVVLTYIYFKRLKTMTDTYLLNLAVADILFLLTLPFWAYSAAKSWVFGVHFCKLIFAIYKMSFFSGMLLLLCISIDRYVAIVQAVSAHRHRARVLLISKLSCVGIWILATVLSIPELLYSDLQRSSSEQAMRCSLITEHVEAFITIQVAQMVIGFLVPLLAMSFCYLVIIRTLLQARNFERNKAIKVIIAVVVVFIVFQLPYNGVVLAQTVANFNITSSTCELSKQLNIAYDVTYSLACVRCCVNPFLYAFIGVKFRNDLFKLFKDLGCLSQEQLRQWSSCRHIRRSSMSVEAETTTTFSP
Protocol: In agonist assays, chemokine receptor expressing U2OS cells are thawed and resuspended in Assay Media (DMEM, 1% dialyzed FBS, 25 mM HEPES pH 7.3, 0.1 mM NEAA, 100 U/mL/100 μg/mL Pen/Strep) to a concentration of 312,500 cells/mL. 4 μL of a 10× serial dilution of I-TAC (control agonist starting concentration, 500 nM) or compounds are added to appropriate wells of a 384-well TC-Treated assay plate. 32 μL of cell suspension (10,000 cells) is added to each well. 4 μL of Assay Media is added to all wells to bring the final assay volume to 40 μL. The plate is incubated for 16-24 hours at 37° C./5% CO2 in a humidified incubator. 8 μL of 1 μM Substrate+Solution D Loading Solution is added to each well and the plate is incubated for 2 hours at room temperature. The plate is read on a fluorescence plate reader.
In antagonist assays, CXCR3-bla U2OS cells were thawed and prepared as described above for the Agonist assay. 4 μL of 10× compounds or assay media was added to appropriate wells of a TC-Treated assay plate. 32 μL of cell suspension was added to the wells and pre-incubated at 37° C./5% CO2 in a humidified incubator with compounds and control antagonist titration for 30 minutes. 4 μL of 10× control agonist I-TAC at the pre-determined EC80 concentration is added to wells containing the control antagonist or compounds. […] The plate is read on a fluorescence plate reader.

CXCR4 = target: T2, CXCR4 (Homo sapiens, UniProt P61073); experiment: as above; assay type: cell-based
T2 construct: host or cells: U2OS
T2 sequence (P61073 whole entry): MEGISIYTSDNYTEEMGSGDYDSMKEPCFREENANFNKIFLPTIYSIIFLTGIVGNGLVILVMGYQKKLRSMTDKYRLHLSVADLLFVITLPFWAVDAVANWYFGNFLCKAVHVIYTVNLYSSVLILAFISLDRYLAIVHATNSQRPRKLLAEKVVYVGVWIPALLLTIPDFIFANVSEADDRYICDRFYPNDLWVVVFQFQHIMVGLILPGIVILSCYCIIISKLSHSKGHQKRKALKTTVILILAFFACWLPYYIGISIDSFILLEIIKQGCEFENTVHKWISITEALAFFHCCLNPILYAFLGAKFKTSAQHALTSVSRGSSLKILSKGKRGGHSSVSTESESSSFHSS

RENCA cells = experiment: RENCA murine adenocarcinoma model, anti-tumor activity; assay type: in vivo, BALB/c female mice; conditions: for tumor volume: 2.5 mg/kg peritumorally daily; for survival: initial dosing
Protocol: (§1) To determine anti-tumor activity of SG-3-00802 in vivo, the RENCA murine adenocarcinoma model was used. It is a syngeneic, standardized experimental model of metastatic RCC. Briefly, BALB/c female mice were inoculated subcutaneously with RENCA cells. Established tumors were treated daily with 2.5 mg/kg SG-3-00802 peritumorally, alone or in combination with intraperitoneal administration of 10 mg/kg anti-PD-1 antibody.
Additional studies were performed to test survival and tumor volume responses to a re-challenge event. In one study, mice were allocated into dosing groups when tumors reached ˜100 mm^3. During the initial dosing study, time 0 was the first day of seven days of dosing. […] Re-implantation was completed on day 39 after dosing completion. Treated mice were tumor free for >20 days before being re-challenge. […] Tumor volume and survival was monitored as previously described. In the re-challenge experiment, time 0 is day 10 after re-challenge dosing.
as §1, with “SG-3-05021” for “SG-3-00802”, “used.” for “used. It is a syngeneic, standardized experimental model of metastatic RCC.”

CCR9 = target: T3, CCR9 (Homo sapiens, UniProt P51686); experiment: gpcrMAX PathHunter β-Arrestin Assay; assay type: cell-based
T3 construct: expressed in transfected cells
T3 sequence (P51686 1-369): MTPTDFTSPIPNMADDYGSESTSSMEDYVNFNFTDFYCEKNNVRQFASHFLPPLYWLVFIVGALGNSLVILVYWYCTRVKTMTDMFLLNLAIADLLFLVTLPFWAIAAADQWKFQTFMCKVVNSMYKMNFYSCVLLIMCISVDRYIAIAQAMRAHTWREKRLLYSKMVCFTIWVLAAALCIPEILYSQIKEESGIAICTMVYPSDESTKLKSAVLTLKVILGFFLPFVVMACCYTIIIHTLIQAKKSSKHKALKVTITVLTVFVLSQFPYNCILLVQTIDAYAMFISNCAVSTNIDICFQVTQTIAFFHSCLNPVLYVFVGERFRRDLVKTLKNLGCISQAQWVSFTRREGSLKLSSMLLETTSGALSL
From the text: The PathHunter® β-Arrestin Assay monitored activation of a panel of 168 G-protein coupled receptors (GPCRs) with […] activation of the GPCR in agonist and antagonist mode.
where the test sample is the peptide, the vehicle control is DMSO (0% activity), and the control ligand is control compound (100% activity).
Peptides SG-3-00802 and SG-3-05021 were identified as an agonist, an antagonist, a PAM (Positive Allosteric Modulator), or an inverse-agonist. Agonist, antagonist, PAM, and inverse-agonist were identified according to the guidelines in Table 8. The basal activity/noise is a % activity of −20% to 20% for both agonist and antagonist modes. A PAM (Positive Allosteric Modulator) binds to a receptor, at a different site than the agonist, to change the receptor's response to the agonist. An inverse-Agonist is a binding partner with agonistic shutting down of basal activity in the cell. An antagonist antagonizes the activity of a particular binding partner.

[1] = in combination with 10 mg/kg i.p. anti-PD-1

MKVRPSVKPMCEKCKIIRRKGRVMVICENPKHKQRQG [SG-3-00802]
binding partners enriched over transferrin ligand (Chemokine receptors): Chemokine receptors | SelectScreen Agonist Mode (CCR7): weak agonistic activity and No | SelectScreen Agonist Mode (CXCR4): no agonistic activity and No | SelectScreen Antagonist Mode (CXCR4): moderate antagonistic activity and Yes | tumor volume (RENCA cells; alone, vs PBS): robust decrease in tumor volume | tumor volume (RENCA cells; [1]): robust decrease in tumor volume | survival (RENCA cells; in combination with anti-PD-1): increased survival | survival (RENCA cells; peptide alone): increased survival | # of animals with complete tumor regression out of total animals per group (primary study) (RENCA cells; primary study): 2/12 | % Agonist Activity (CCR9): 2% | % Antagonist Activity (CCR9): −48%

LGKTDWIEKYFKVKKEKIDKMQRFLQG (peptide for immunotherapy; SG-3-05021)
SelectScreen Agonist Mode (CCR7): no agonistic activity and No | SelectScreen Agonist Mode (CXCR4): no agonistic activity and No | tumor volume (RENCA cells; alone, vs PBS): decrease in tumor volume | tumor volume (RENCA cells; [1]): decrease in tumor volume | survival (RENCA cells; in combination with anti-PD-1): survived a longer time | survival (RENCA cells; peptide alone): survived a longer time
